Experiments:
Assay type in all cases: cell-based
Proteus mirabilis = assay: MIC against Gram-negative bacteria: Proteus mirabilis; conditions: for MIC (μg/mL) P. mirabilis / MIC P. mirabilis / MIC against P. mirabilis: 5×10^5 CFU/mL
Procedure, shortened: (§1)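 Inocula prepared by growing LB cultures at 37° C to 0.5 McFarland, centrifuging at 4000×g, and resuspending in fresh medium. Final density 5×10^5 CFU/mL per well with two-fold dilutions of purified EGF domain protein; shaking incubation at 37° C.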

E. coli BL21 = assay: MIC against Gram-negative bacteria: E. coli BL21; conditions: for MIC / MIC (μg/mL) E. coli BL21 / MIC against E. coli BL21: E. coli BL21; for MIC (μg/mL) E. coli BL21 / MIC E. coli BL21 / MIC against E. coli BL21: 5×10^5 CFU/mL
Procedure, shortened: as §1

Aeromonas hydrophila = assay: MIC against Gram-negative bacteria: Aeromonas hydrophila; conditions: for MIC (μg/mL) A. hydrophila / MIC A. hydrophila / MIC against A. hydrophila: 5×10^5 CFU/mL
Procedure, shortened: as §1

E. coli DH5α = assay: Antibacterial activity: MIC and growth curve against E. coli DH5α in 96-well plate; conditions: minimal inhibitory concentration against E. coli DH5α; 96-well plate, 5×10^5 CFU/mL, 37° C., judged after 8 h
Procedure, shortened: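 Log-phase bacteria (OD600 ~0.5) resuspended in LB at 5×10^5 CFU/mL, exposed to recombinant protein at 50, 25, 12.5 μg/mL final in triplicate, 37 °C shaking at 175 rpm. OD600 read every 30 min; MIC is lowest concentration showing no growth.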

Pseudomonas aeruginosa = assay: MIC against Gram-negative bacteria: Pseudomonas aeruginosa; conditions: for MIC (μg/mL) P. aeruginosa / MIC P. aeruginosa / MIC against P. aeruginosa: 5×10^5 CFU/mL
Procedure, shortened: as §1

Proteus vulgaris = assay: MIC against Gram-negative bacteria: Proteus vulgaris; conditions: for MIC (μg/mL) P. vulgaris / MIC P. vulgaris / MIC against P. vulgaris: 5×10^5 CFU/mL
Procedure, shortened: as §1

Citrobacter diversus = assay: MIC against Gram-negative bacteria: Citrobacter diversus; conditions: for MIC (μg/mL) C. diversus / MIC C. diversus / MIC against C. diversus: 5×10^5 CFU/mL
Procedure, shortened: as §1

Klebsiella pneumonia = assay: MIC against Gram-negative bacteria: Klebsiella pneumonia; conditions: for MIC (μg/mL) K. pneumonia / MIC K. pneumonia / MIC against K. pneumonia: 5×10^5 CFU/mL
Procedure, shortened: as §1

Moraxella catarrhalis = assay: MIC against Gram-negative bacteria: Moraxella catarrhalis; conditions: for MIC (μg/mL) M. catarrhalis / MIC M. catarrhalis / MIC against M. catarrhalis: 5×10^5 CFU/mL
Procedure, shortened: as §1

Serratia marcescens = assay: MIC against Gram-negative bacteria: Serratia marcescens; conditions: for MIC (μg/mL) S. marcescens / MIC S. marcescens / MIC against S. marcescens: 5×10^5 CFU/mL
Procedure, shortened: as §1

Enterobacter cloacae = assay: MIC against Gram-negative bacteria: Enterobacter cloacae; conditions: for MIC (μg/mL) E. cloacae / MIC E. cloacae / MIC against E. cloacae: 5×10^5 CFU/mL
Procedure, shortened: as §1

[1] = P. mirabilis, 10 h cultivation at 37° C.
[2] = A. hydrophila, 10 h cultivation at 37° C.
[3] = P. aeruginosa, 10 h cultivation at 37° C.
[4] = P. vulgaris, 10 h cultivation at 37° C.
[5] = C. diversus, 10 h cultivation at 37° C.
[6] = K. pneumonia, 10 h cultivation at 37° C.
[7] = M. catarrhalis, 10 h cultivation at 37° C.
[8] = S. marcescens, 10 h cultivation at 37° C.
[9] = E. cloacae, 10 h cultivation at 37° C.
[10] = Proteus mirabilis, 96-well plate, 37° C., 10 h
[11] = Aeromonas hydrophila, 96-well plate, 37° C., 10 h
[12] = Pseudomonas aeruginosa, 96-well plate, 37° C., 10 h
[13] = Proteus vulgaris, 96-well plate, 37° C., 10 h
[14] = Citrobacter diversus, 96-well plate, 37° C., 10 h
[15] = Klebsiella pneumonia, 96-well plate, 37° C., 10 h
[16] = Moraxella catarrhalis, 96-well plate, 37° C., 10 h
[17] = Serratia marcescens, 96-well plate, 37° C., 10 h
[18] = Enterobacter cloacae, 96-well plate, 37° C., 10 h
[19] = 10 h cultivation at 37° C., two-fold serial dilution

PRT992 (LEDMCLSQPCHGDAQCSTNPLTGSTLCLCQPGYSGPTCH; listed as Homo sapiens)
MIC (Proteus mirabilis; [1]): 25 µg/mL
MIC (E. coli BL21; 10 h cultivation at 37° C.): 12.5 µg/mL
MIC (Aeromonas hydrophila; [2]): 25 µg/mL
MIC (E. coli DH5α): 12.5 µg/mL
MIC (Pseudomonas aeruginosa; [3]): 12.5 µg/mL
MIC (Proteus vulgaris; [4]): 12.5 µg/mL
MIC (Citrobacter diversus; [5]): 25 µg/mL
MIC (Klebsiella pneumonia; [6]): 12.5 µg/mL
MIC (Moraxella catarrhalis; [7]): 25 µg/mL
MIC (Serratia marcescens; [8]): 25 µg/mL
MIC (Enterobacter cloacae; [9]): 25 µg/mL

PRT22 (WCEDNGGCEQICTSRVDGPLCSCVTGTLQEDGKSCR; listed as Homo sapiens)
MIC (μg/mL) P. mirabilis (Proteus mirabilis; [10]): 12.5 µg/mL
MIC (μg/mL) E. coli BL21 (E. coli BL21; 96-well plate, 37° C., 10 h): 50 µg/mL
MIC (μg/mL) A. hydrophila (Aeromonas hydrophila; [11]): 25 µg/mL
MIC (E. coli DH5α): 50 µg/mL
MIC (μg/mL) P. aeruginosa (Pseudomonas aeruginosa; [12]): 25 µg/mL
MIC (μg/mL) P. vulgaris (Proteus vulgaris; [13]): 12.5 µg/mL
MIC (μg/mL) C. diversus (Citrobacter diversus; [14]): 12.5 µg/mL
MIC (μg/mL) K. pneumonia (Klebsiella pneumonia; [15]): 12.5 µg/mL
MIC (μg/mL) M. catarrhalis (Moraxella catarrhalis; [16]): 25 µg/mL
MIC (μg/mL) S. marcescens (Serratia marcescens; [17]): 25 µg/mL
MIC (μg/mL) E. cloacae (Enterobacter cloacae; [18]): 12.5 µg/mL

PRT1096 (QLNVCNSNPCLHGGNCEDIYSSYHCSCPLGWSGKHCE; listed as Homo sapiens)
MIC P. mirabilis (Proteus mirabilis; [19]): 12.5 µg/mL
MIC E. coli BL21 (E. coli BL21; [19]): 50 µg/mL
MIC A. hydrophila (Aeromonas hydrophila; [19]): 50 µg/mL
MIC (E. coli DH5α): 12.5 µg/mL
MIC P. aeruginosa (Pseudomonas aeruginosa; [19]): 50 µg/mL
MIC P. vulgaris (Proteus vulgaris; [19]): 12.5 µg/mL
MIC C. diversus (Citrobacter diversus; [19]): 50 µg/mL
MIC K. pneumonia (Klebsiella pneumonia; [19]): 50 µg/mL
MIC M. catarrhalis (Moraxella catarrhalis; [19]): 12.5 µg/mL
MIC S. marcescens (Serratia marcescens; [19]): 25 µg/mL
MIC E. cloacae (Enterobacter cloacae; [19]): 12.5 µg/mL

PRT717 (DLNECLVFGTCSHQCINVEGSYKCVCDQNFQERNNTCI; listed as Homo sapiens)
MIC P. mirabilis (Proteus mirabilis; 96-well plate, 37° C., 10 h): 25 µg/mL
MIC E. coli BL21 (E. coli BL21; 96-well plate, 37° C., 10 h): 12.5 µg/mL
MIC A. hydrophila (Aeromonas hydrophila; 96-well plate, 37° C., 10 h): 12.5 µg/mL
MIC (E. coli DH5α): 50 µg/mL
MIC P. aeruginosa (Pseudomonas aeruginosa; 96-well plate, 37° C., 10 h): 50 µg/mL
MIC P. vulgaris (Proteus vulgaris; 96-well plate, 37° C., 10 h): 12.5 µg/mL
MIC C. diversus (Citrobacter diversus; 96-well plate, 37° C., 10 h): 25 µg/mL
MIC K. pneumonia (Klebsiella pneumonia; 96-well plate, 37° C., 10 h): 12.5 µg/mL
MIC M. catarrhalis (Moraxella catarrhalis; 96-well plate, 37° C., 10 h): 50 µg/mL
MIC S. marcescens (Serratia marcescens; 96-well plate, 37° C., 10 h): 50 µg/mL
MIC E. cloacae (Enterobacter cloacae; 96-well plate, 37° C., 10 h): 50 µg/mL

PRT1126 (DVRACSSAPCANNRTCVSLDDGLYECSCAPGYSGKDCQ; listed as Homo sapiens)
MIC P. mirabilis (Proteus mirabilis; [19]): 50 µg/mL
MIC E. coli BL21 (E. coli BL21; [19]): 50 µg/mL
MIC A. hydrophila (Aeromonas hydrophila; [19]): 25 µg/mL
MIC (E. coli DH5α): 25 µg/mL
MIC P. aeruginosa (Pseudomonas aeruginosa; [19]): 25 µg/mL
MIC P. vulgaris (Proteus vulgaris; [19]): 12.5 µg/mL
MIC C. diversus (Citrobacter diversus; [19]): 50 µg/mL
MIC K. pneumonia (Klebsiella pneumonia; [19]): 12.5 µg/mL
MIC M. catarrhalis (Moraxella catarrhalis; [19]): 12.5 µg/mL
MIC S. marcescens (Serratia marcescens; [19]): 50 µg/mL
MIC E. cloacae (Enterobacter cloacae; [19]): 25 µg/mL

PRT1211 (LSPYCKDEPCKNGGTCFDSLDGAVCQCDSGFRGERCQ; listed as Homo sapiens)
MIC against P. mirabilis (Proteus mirabilis; [10]): 50 µg/mL
MIC against E. coli BL21 (E. coli BL21; 96-well plate, 37° C., 10 h): 25 µg/mL
MIC against A. hydrophila (Aeromonas hydrophila; [11]): 25 µg/mL
MIC (E. coli DH5α): 50 µg/mL
MIC against P. aeruginosa (Pseudomonas aeruginosa; [12]): 12.5 µg/mL
MIC against P. vulgaris (Proteus vulgaris; [13]): 25 µg/mL
MIC against C. diversus (Citrobacter diversus; [14]): 12.5 µg/mL
MIC against K. pneumonia (Klebsiella pneumonia; [15]): 25 µg/mL
MIC against M. catarrhalis (Moraxella catarrhalis; [16]): 25 µg/mL
MIC against S. marcescens (Serratia marcescens; [17]): 12.5 µg/mL
MIC against E. cloacae (Enterobacter cloacae; [18]): 50 µg/mL

PRT1474 (IPDQCSPLPCNEDGYMSCKDGKASFTCTCKPGWQGEKCE; listed as Homo sapiens)
MIC against P. mirabilis (Proteus mirabilis; Proteus mirabilis, 10 h cultivation at 37° C.): 50 µg/mL
MIC against E. coli BL21 (E. coli BL21; 10 h cultivation at 37° C.): 12.5 µg/mL
MIC against A. hydrophila (Aeromonas hydrophila; Aeromonas hydrophila, 10 h cultivation at 37° C.): 25 µg/mL
MIC (E. coli DH5α): 50 µg/mL
MIC against P. aeruginosa (Pseudomonas aeruginosa; Pseudomonas aeruginosa, 10 h cultivation at 37° C.): 25 µg/mL
MIC against P. vulgaris (Proteus vulgaris; Proteus vulgaris, 10 h cultivation at 37° C.): 12.5 µg/mL
MIC against C. diversus (Citrobacter diversus; Citrobacter diversus, 10 h cultivation at 37° C.): 12.5 µg/mL
MIC against K. pneumonia (Klebsiella pneumonia; Klebsiella pneumonia, 10 h cultivation at 37° C.): 25 µg/mL
MIC against M. catarrhalis (Moraxella catarrhalis; Moraxella catarrhalis, 10 h cultivation at 37° C.): 25 µg/mL
MIC against S. marcescens (Serratia marcescens; Serratia marcescens, 10 h cultivation at 37° C.): 25 µg/mL
MIC against E. cloacae (Enterobacter cloacae; Enterobacter cloacae, 10 h cultivation at 37° C.): 50 µg/mL

PRT801 (FGYGCQQLCECMNNSTCDHVTGTCYCSPGFKGIRCD; listed as Homo sapiens)
MIC (μg/mL) P. mirabilis (Proteus mirabilis; [1]): 12.5 µg/mL
MIC (μg/mL) E. coli BL21 (E. coli BL21; 10 h cultivation at 37° C.): 12.5 µg/mL
MIC (μg/mL) A. hydrophila (Aeromonas hydrophila; [2]): 25 µg/mL
MIC (E. coli DH5α): 25 µg/mL
MIC (μg/mL) P. aeruginosa (Pseudomonas aeruginosa; [3]): 50 µg/mL
MIC (μg/mL) P. vulgaris (Proteus vulgaris; [4]): 12.5 µg/mL
MIC (μg/mL) C. diversus (Citrobacter diversus; [5]): 12.5 µg/mL
MIC (μg/mL) K. pneumonia (Klebsiella pneumonia; [6]): 25 µg/mL
MIC (μg/mL) M. catarrhalis (Moraxella catarrhalis; [7]): 12.5 µg/mL
MIC (μg/mL) S. marcescens (Serratia marcescens; [8]): 12.5 µg/mL
MIC (μg/mL) E. cloacae (Enterobacter cloacae; [9]): 12.5 µg/mL

PRT937 (DIDECISKPCMNHGLCHNTQGSYMCECPPGFSGMDCE; listed as Homo sapiens)
MIC (Proteus mirabilis; [1]): 50 µg/mL
MIC (E. coli BL21; 10 h cultivation at 37° C.): 12.5 µg/mL
MIC (Aeromonas hydrophila; [2]): 50 µg/mL
MIC (E. coli DH5α): 25 µg/mL
MIC (Pseudomonas aeruginosa; [3]): 50 µg/mL
MIC (Proteus vulgaris; [4]): 12.5 µg/mL
MIC (Citrobacter diversus; [5]): 25 µg/mL
MIC (Klebsiella pneumonia; [6]): 25 µg/mL
MIC (Moraxella catarrhalis; [7]): 12.5 µg/mL
MIC (Serratia marcescens; [8]): 50 µg/mL
MIC (Enterobacter cloacae; [9]): 12.5 µg/mL

PRT609 (CHCSPVGSLSTQCDSYGRCSCKPGVMGDKCDRCQPGFHSLTEAGCRP; listed as Homo sapiens)
MIC P. mirabilis (Proteus mirabilis; 96-well plate, 37° C., 10 h): 50 µg/mL
MIC E. coli BL21 (E. coli BL21; 96-well plate, 37° C., 10 h): 25 µg/mL
MIC A. hydrophila (Aeromonas hydrophila; 96-well plate, 37° C., 10 h): 25 µg/mL
MIC (E. coli DH5α): 50 µg/mL
MIC P. aeruginosa (Pseudomonas aeruginosa; 96-well plate, 37° C., 10 h): 12.5 µg/mL
MIC P. vulgaris (Proteus vulgaris; 96-well plate, 37° C., 10 h): 25 µg/mL
MIC C. diversus (Citrobacter diversus; 96-well plate, 37° C., 10 h): 12.5 µg/mL
MIC K. pneumonia (Klebsiella pneumonia; 96-well plate, 37° C., 10 h): 25 µg/mL
MIC M. catarrhalis (Moraxella catarrhalis; 96-well plate, 37° C., 10 h): 25 µg/mL
MIC S. marcescens (Serratia marcescens; 96-well plate, 37° C., 10 h): 12.5 µg/mL
MIC E. cloacae (Enterobacter cloacae; 96-well plate, 37° C., 10 h): 50 µg/mL

Source: patent publication US9833497B2, “Human originated EGF domain proteins and use of the same” (CHENGDU SOURCEBIO LIMITED-LIABILITY COMPANY, priority 2013, dated 2017)
